Read-outs that look alike come from different tables or passages of the source. Peptide text beside a SMILES is read from it. * marks the point of attachment. Cbz = O=C(OCc1ccccc1)*; CH2F = FC*
Tests used:
Caspase-5 = Caspase-5 (Homo sapiens (Human), UniProt P51878); test: Fluorometric enzymatic assay, active recombinant Caspase-5; type: biochemical
Protocol: (§1) . In brief, each compound was serially diluted for a final test concentration range of 0.1 nM to 3.3 μM (10-point titration). Each active recombinant Caspase (Active Recombinant Caspase Set IV™ (BioVision, Cat# K233-10-25)) was added to the respective wells of the 96-well High Efficiency™ plates (Molecular Devices, Cat#75-000-0005), followed by the addition of the diluted test compounds. DMSO (Final=1%) or Z-VAD-FMK (Caspase-Family Inhibitor, Z-VAD-FMK (BioVision, Cat#1010-100), Final concentration=20 uM) was added in the designated wells as a background control or positive inhibitor control respectively. Each dilution of the test compounds was tested in duplicates, whereas the DMSO or Z-VAD-FMK controls were tested in triplicates. The synthetic peptide substrate specific for each Caspase (BioVision) was then added to the respective wells, which when cleaved by the active caspase releases free AFC that can be quantified by fluorometry. After a 30-minute incubation at 37° C., the plates were read using the Flexstation 3™ with a 400 nm excitation filter and a 505 nm emission filter (cutoff at 495 nm). The inhibition efficiency and the IC50 values of the test compounds were then determined by comparing the fluorescence intensity (FI) of the test compounds with that of the DMSO control.
(§2) The SoftMax Pro Software™ (v5.2 rev C, Molecular Devices) was used for data analysis. The % Inhibition is calculated by: % Inhibition=[FI(DMSO)−FI(test sample)/FI(DMSO)]×100. The % Inhibition vs. Log(concentration) was plotted, and the curve was fitted using the 5-parameter fit of the software.

Caspase-2 = Caspase-2 (Homo sapiens (Human), UniProt P42575); test: Fluorometric enzymatic assay, active recombinant Caspase-2; type: biochemical
Sequence of Caspase-2 (P42575 170-325): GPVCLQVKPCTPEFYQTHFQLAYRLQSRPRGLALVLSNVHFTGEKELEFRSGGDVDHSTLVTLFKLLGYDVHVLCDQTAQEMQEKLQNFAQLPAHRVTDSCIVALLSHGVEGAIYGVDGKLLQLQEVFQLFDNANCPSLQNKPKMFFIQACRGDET
Sequence of Caspase-2 (P42575 348-452): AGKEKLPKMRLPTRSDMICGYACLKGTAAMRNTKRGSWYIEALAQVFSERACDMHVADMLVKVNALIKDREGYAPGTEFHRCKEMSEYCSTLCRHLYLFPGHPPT
Protocol: as §1, §2

Caspase-7 = Caspase-7 (Homo sapiens (Human), UniProt P55210); test: Fluorometric enzymatic assay, active recombinant Caspase-7
Sequence of Caspase-7 (P55210 whole entry, looked up): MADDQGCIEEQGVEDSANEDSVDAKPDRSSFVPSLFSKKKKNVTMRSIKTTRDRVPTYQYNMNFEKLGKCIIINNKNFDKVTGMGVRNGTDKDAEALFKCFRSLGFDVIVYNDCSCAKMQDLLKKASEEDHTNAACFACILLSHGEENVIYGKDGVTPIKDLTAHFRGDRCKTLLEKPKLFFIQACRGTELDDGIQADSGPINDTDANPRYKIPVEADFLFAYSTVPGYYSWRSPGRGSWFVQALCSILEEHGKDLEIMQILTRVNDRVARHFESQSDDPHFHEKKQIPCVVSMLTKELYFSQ
Sequence of Caspase-7 (P55210 whole entry, looked up): as above
Protocol: (§3) Each dilution of the test compounds was tested in duplicates, whereas the DMSO or Z-VAD-FMK controls were tested in triplicates. […] The inhibition efficiency and the IC50 values of the test compounds were then determined by comparing the fluorescence intensity (FI) of the test compounds with that of the DMSO control.

Caspase-10 = Caspase-10 (Homo sapiens (Human), UniProt Q92851); test: Fluorometric enzymatic assay, active recombinant Caspase-10; settings: for inhibitory activity towards Caspase-10: FIG. 5
Sequence of Caspase-10 (Q92851 220-415): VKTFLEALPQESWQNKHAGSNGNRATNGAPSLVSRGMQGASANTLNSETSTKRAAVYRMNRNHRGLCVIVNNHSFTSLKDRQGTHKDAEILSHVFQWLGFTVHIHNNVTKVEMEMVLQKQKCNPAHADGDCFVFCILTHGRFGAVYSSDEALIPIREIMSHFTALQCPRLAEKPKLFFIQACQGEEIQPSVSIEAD
Sequence of Caspase-10 (Q92851 416-521): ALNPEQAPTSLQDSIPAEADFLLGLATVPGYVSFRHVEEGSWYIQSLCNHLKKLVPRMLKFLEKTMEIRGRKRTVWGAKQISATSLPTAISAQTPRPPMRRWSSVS
Protocol: as §3

Caspase-6 = Caspase-6 (Homo sapiens (Human), UniProt P55212); test: Fluorometric enzymatic assay, active recombinant Caspase-6; type: biochemical
Sequence of Caspase-6 (P55212 24-179): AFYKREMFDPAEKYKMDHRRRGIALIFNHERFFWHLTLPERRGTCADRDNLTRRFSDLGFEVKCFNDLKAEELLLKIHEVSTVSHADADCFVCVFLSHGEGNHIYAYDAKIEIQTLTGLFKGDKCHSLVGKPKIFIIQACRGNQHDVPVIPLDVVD
Sequence of Caspase-6 (P55212 194-293): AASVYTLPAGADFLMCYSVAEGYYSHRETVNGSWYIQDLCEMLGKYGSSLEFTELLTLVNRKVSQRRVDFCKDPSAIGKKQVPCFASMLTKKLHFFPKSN
Protocol: as §1, §2

Caspase-9 = Caspase-9 (Homo sapiens (Human), UniProt P55211); test: Fluorometric enzymatic assay, active recombinant Caspase-9; settings: for inhibitory activity towards Caspase-9: FIG. 5; for IC50: read-out: IC50 values (μM) Caspase-9, 10-point titration 0.1 nM to 3.3 μM, 30-minute incubation at 37° C.
Sequence of Caspase-9 (P55211 whole entry, looked up, change not shown): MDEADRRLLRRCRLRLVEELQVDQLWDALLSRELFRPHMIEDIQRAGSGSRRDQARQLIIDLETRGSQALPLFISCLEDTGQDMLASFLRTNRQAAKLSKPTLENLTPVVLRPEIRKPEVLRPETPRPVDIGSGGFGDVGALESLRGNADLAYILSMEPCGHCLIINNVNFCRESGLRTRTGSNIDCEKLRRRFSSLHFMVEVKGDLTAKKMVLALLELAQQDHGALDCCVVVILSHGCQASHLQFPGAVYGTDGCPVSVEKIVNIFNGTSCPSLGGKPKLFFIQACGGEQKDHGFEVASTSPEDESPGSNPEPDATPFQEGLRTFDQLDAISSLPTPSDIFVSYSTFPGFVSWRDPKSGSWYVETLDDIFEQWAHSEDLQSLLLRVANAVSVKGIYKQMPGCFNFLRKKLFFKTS
Sequence of Caspase-9 (P55211 whole entry, looked up, change not shown): as above
Protocol: as §3

Caspase-4 = Caspase-4 (Homo sapiens (Human), UniProt P49662); test: Fluorometric enzymatic assay, active recombinant Caspase-4
Sequence of Caspase-4 (P49662 81-270): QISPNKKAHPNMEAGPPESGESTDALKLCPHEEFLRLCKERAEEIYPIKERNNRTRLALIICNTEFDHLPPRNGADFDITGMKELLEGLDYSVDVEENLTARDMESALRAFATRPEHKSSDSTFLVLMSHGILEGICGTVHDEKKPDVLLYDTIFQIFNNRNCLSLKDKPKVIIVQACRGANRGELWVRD
Sequence of Caspase-4 (P49662 290-377): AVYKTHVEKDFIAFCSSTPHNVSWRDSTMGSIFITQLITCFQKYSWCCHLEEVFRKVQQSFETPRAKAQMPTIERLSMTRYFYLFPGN
Protocol: as §3

Caspase-1 = Caspase-1 (Homo sapiens (Human), UniProt P29466); test: Fluorometric enzymatic assay, active recombinant Caspase-1
Sequence of Caspase-1 (P29466 whole entry, looked up): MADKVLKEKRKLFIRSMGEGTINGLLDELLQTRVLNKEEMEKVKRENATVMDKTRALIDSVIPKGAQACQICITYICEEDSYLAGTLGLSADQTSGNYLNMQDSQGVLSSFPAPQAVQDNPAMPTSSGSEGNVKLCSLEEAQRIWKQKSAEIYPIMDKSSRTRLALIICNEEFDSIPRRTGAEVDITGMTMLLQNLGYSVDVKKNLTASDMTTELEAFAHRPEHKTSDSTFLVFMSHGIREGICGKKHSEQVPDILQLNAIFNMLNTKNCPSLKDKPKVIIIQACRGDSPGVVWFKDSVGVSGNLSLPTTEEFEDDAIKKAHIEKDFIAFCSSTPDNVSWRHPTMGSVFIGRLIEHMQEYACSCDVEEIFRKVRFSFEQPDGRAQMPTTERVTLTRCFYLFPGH
Sequence of Caspase-1 (P29466 whole entry, looked up): as above
Protocol: as §3

Caspase-8 = Caspase-8 (Homo sapiens (Human), UniProt Q14790); test: Fluorometric enzymatic assay, active recombinant Caspase-8; type: biochemical
Sequence of Caspase-8 (Q14790 217-374): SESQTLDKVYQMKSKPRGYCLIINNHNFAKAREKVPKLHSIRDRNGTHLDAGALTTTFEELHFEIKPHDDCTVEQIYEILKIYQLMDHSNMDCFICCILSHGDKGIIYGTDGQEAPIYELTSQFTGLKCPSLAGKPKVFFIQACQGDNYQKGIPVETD
Sequence of Caspase-8 (Q14790 385-479): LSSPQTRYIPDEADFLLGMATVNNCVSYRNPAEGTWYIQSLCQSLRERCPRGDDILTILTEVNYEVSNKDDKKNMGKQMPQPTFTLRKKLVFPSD
Protocol: as §1, §2

Caspase-1 to -10 = test: Fluorometric caspase enzymatic assays, positive inhibitor control (all experiments); type: biochemical; settings: Final concentration=20 uM
Protocol: as §1, with “In” for “. In”, “control. […]” for “control.”

EAE in C57BL/6 mice = test: Chronic EAE mouse model (MOG35-55 immunization), daily clinical score and body weight; type: in vivo; parameters: key to Delay in onset of the disease / Reduction in severity of the disease / Reduction in body weight loss: +++: high level improvement; ++: moderate improvement; +: small improvement; −: no improvement; settings: for Delay in onset of the disease / Reduction in body weight loss / Reduction in severity of the disease: average overall effects on the EAE model, i.p.
Description: The aim of this study was to verify the effectiveness of compounds in a chronic mouse animal model of EAE. EAE is a good proof-of-principle model of neurodegeneration since it encompasses degeneration or destruction of practically all the cells in the central nervous system, includes most major immunomodulatory components, and is able to maintain normal innate regenerative functions in the animal. This is a standard model (Antel J P et al., J Neurosci Res. 1997, 50: 345-353) used mainly to mimic the course evolution of Multiple Sclerosis (MS) in humans, and is commonly used for studying disease mechanisms and testing potential therapies. EAE is induced by immunization with myelin proteins, leading to development of myelin-specific T cells. These autoreactive T cells traffic into CNS parenchyma where they initiate an inflammatory cascade through recruitment of other cells such as monocytes and neutrophils. Accumulation of immune cells within CNS leads to myelin damage, axonal loss and clinical deficit in affected animals. EAE can be induced in a variety of species and strains of animals [mice, Rat, marmoset monkey, rhesus macaques] using various CNS antigens [Myelin Oligodendrocyte Glycoprotein (MOG), proteolipid protein (PLP) and myelin basic protein (MBP)]. Seven to 8 week old female C57BL/6 mice were purchased from Charles River Laboratories, and housed at MISPRO™ animal facility for one week before experimentation for adaptation to the new environment. All proper animal experimentation and ethics approvals were obtained prior to the start of any experiments. Mice were immunized subcutaneously with 100 μg of MOG35-55 (Sheldon Biotechnology Centre, McGill University) in CFA containing 5 mg/ml of desiccated (killed and dried) Mycobacterium tuberculosis H37Ra (Difco, Inc), at two sites on the back. The mice were then injected with 200 ng of pertussis toxin (List Biological Laboratories, Inc) in PBS intraperitoneally on days 0 and 2 using 25 gauge needles and scored daily using an EAE clinical scale as detailed below (Touil T et al., J Neurol Sci. 2008, 271:191-202; Antel J P et al., 1997, supra; Owens T et al., Curr Pharm Des. 2005, 1:1031-1037).
EAE was clinically assessed throughout the experiments by daily scoring using a scale from 0 to 5 as follows: partial limp tail, 0.5; full limp tail, 1; limp tail and waddling gait, 1.5; paralysis of one hind limb, 2; paralysis of one hind limb and partial paralysis of other hind limb, 2.5; paralysis of both hind limbs, 3; ascending paralysis, 3.5; paralysis of trunk, 4; moribund, 4.5; death, 5. In all the EAE models a body weight loss is always associated with the clinical signs. This body weight loss is associated with the loss of the function and the paralysis of the muscle (atrophy inducing loss of weight). For animals showing a clinical sign of 2 or more, the food and the water were presented inside the cage to facilitate eating and drinking.
At the onset of clinical signs of EAE, the mice were treated with 200 μl of Compound 51, 53, 57, 59, 101, 104, 105, 111 or 123 dissolved in 2.5% Dimethyl sulfoxide (DMSO) in PBS, while placebo groups were treated with 2.5% Dimethyl sulfoxide (DMSO) in PBS only, by intraperitoneal injection at different time of the clinical evolution.

Caspase-3 = Caspase-3 (Homo sapiens (Human), UniProt P42574); test: Fluorometric enzymatic assay, active recombinant Caspase-3; settings: for inhibitory activity towards Caspase-3: FIG. 5; for IC50: read-out: IC50 values (μM) Caspase-3, 10-point titration 0.1 nM to 3.3 μM, 30-minute incubation at 37° C.
Sequence of Caspase-3 (P42574 29-175): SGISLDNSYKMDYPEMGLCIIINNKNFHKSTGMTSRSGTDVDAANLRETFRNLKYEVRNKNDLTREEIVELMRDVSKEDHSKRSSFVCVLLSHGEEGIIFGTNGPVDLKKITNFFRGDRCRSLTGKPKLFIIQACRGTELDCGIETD
Sequence of Caspase-3 (P42574 176-277): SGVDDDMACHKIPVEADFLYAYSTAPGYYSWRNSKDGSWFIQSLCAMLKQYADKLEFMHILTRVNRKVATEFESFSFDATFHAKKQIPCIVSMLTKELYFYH
Protocol: as §3

[1] = 10-point titration 0.1 nM to 3.3 μM, 30-minute incubation at 37° C., read-out: IC50 values (μM) Caspase-5
[2] = FIG. 3, i.p. from day 14 to 19 post immunization, versus placebo
[3] = 10-point titration 0.1 nM to 3.3 μM, 30-minute incubation at 37° C., read-out: IC50 values (μM) Caspase-2
[4] = read-out: IC50 values (μM) Caspase-7, 10-point titration 0.1 nM to 3.3 μM, 30-minute incubation at 37° C.
[5] = read-out: IC50 values (μM) Caspase-10, 10-point titration 0.1 nM to 3.3 μM, 30-minute incubation at 37° C.
[6] = 10-point titration 0.1 nM to 3.3 μM, 30-minute incubation at 37° C., read-out: IC50 values (μM) Caspase-6
[7] = read-out: IC50 values (μM) Caspase-4, 10-point titration 0.1 nM to 3.3 μM, 30-minute incubation at 37° C.
[8] = read-out: IC50 values (μM) Caspase-1, 10-point titration 0.1 nM to 3.3 μM, 30-minute incubation at 37° C.
[9] = 10-point titration 0.1 nM to 3.3 μM, 30-minute incubation at 37° C., read-out: IC50 values (μM) Caspase-8

Sequence of Caspase-5 (P51878 whole entry, looked up): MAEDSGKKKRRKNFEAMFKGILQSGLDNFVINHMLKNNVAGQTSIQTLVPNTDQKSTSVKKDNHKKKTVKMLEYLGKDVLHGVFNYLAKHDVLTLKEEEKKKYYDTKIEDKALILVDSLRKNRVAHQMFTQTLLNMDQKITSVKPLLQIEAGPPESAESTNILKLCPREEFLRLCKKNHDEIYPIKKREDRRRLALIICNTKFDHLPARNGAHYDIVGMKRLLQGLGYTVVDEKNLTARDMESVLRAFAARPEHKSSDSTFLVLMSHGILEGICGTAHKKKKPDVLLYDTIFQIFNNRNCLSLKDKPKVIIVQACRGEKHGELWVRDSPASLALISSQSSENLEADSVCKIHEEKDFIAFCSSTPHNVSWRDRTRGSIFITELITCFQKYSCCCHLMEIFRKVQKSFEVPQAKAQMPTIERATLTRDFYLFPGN
Sequence of Caspase-5 (P51878 whole entry, looked up): as above

Row | SMILES | inhibitory activity towards Caspase-10 (Caspase-10) | inhibitory activity towards Caspase-9 (Caspase-9) | IC50 (Caspase-5; [1]) | effects on the clinical course of EAE (EAE in C57BL/6 mice; [2]) | Delay in onset of the disease (EAE in C57BL/6 mice) | Reduction in body weight loss (EAE in C57BL/6 mice) | Reduction in severity of the disease (EAE in C57BL/6 mice) | IC50 (Caspase-2; [3]) | IC50 (Caspase-7; [4]) | IC50 (Caspase-10; [5]) | IC50 (Caspase-6; [6]) | IC50 (Caspase-9) | IC50 (Caspase-4; [7]) | IC50 (Caspase-1; [8]) | inhibitory activity towards Caspase-3 (Caspase-3) | IC50 (Caspase-3) | IC50 (Caspase-8; [9]) | further results
1 | COC(=O)CC[C@H](NC(=O)[C@H](CC(=O)OC)NC(=O)OCc1ccccc1)C(=O)N[C@H](C(=O)N[C@@H](CC(=O)OC)C(=O)CF)C(C)C [Z-DEVD-FMK, z-D(OMe)E(OMe)VD(OMe)FMK, reference compound] | inhibitory activity | inhibitory activity |  |  |  |  |  |  |  |  |  |  |  |  |  |  |  | IC50 (Caspase-5): > 3.33 µM; inhibitory activity towards Caspase-5 (Caspase-5; FIG. 5): negligible; IC50 (Caspase-2): > 3.33 µM; inhibitory activity towards Caspase-2 (Caspase-2; FIG. 5): negligible; IC50 (Caspase-7): > 3.33 µM; IC50 (Caspase-10): 2.7 µM; IC50 (Caspase-6): > 3.33 µM; inhibitory activity towards Caspase-6 (Caspase-6; FIG. 5): negligible; IC50 (Caspase-4): 2.5 µM; inhibitory activity towards Caspase-4 (Caspase-4; FIG. 5): inhibitory activity; IC50 (Caspase-1): 0.7 µM; inhibitory activity towards Caspase-1 (Caspase-1; FIG. 5): inhibitory activity; IC50 (Caspase-8): 1.6 µM; inhibitory activity towards Caspase-8 (Caspase-8; FIG. 5): inhibitory activity
2 | COC(=O)C[C@H](NC(=O)[C@H](C)NC(=O)[C@@H](NC(=O)OCc1ccccc1)C(C)C)C(=O)CF [Z-VAD-FMK, benzyloxycarbonyl-Val-Ala-Asp-fluoromethylketone] (Cbz-Val-Ala-Asp(OMe)-CH2F) |  |  |  |  |  |  |  |  |  |  |  |  |  |  |  |  |  | inhibition by positive inhibitor control (Caspase-1 to -10): > 50%
3 | CC(C)[C@H](NC(=O)[C@@H](NC(=O)[C@H](CC(=O)O)NC(=O)OCc1ccccc1)c1ccccc1)C(=O)N[C@H](/C=C(\Cl)S(C)(=O)=O)CC(=O)O [Compound 123, Z-Asp-phenylglycine-Val-Asp-achlorovinyl methylsulfone] | inhibitory activity | inhibitory activity | > 3.33 µM | ameliorating effects | + | +++ | ++ | > 3.33 µM | 0.5 µM | 2 µM | > 3.33 µM | 2.8 µM | > 3.33 µM | > 3.33 µM | high inhibitory activity | 0.06 µM | > 3.33 µM | Loss of body weight (EAE in C57BL/6 mice; [2]): less than in the placebo group; inhibitory activity towards Caspase-7 (Caspase-7; FIG. 5): high inhibitory activity
4 | CC(C)[C@H](NC(=O)[C@H](Cc1cccc2ccccc12)NC(=O)[C@H](CC(=O)O)NC(=O)OCc1ccccc1)C(=O)N[C@H](/C=C/S(C)(=O)=O)CC(=O)O [Compound 111, Z-Asp-3-(1-naphtyl)-L-alanine-Val-Aspmethyl vinyl sulfone] |  |  | > 3.33 µM | ameliorating effects | + | ++ | ++ | > 3.33 µM | > 3.33 µM | > 3.33 µM | > 3.33 µM | > 3.33 µM | > 3.33 µM | > 3.33 µM | high inhibitory activity | 0.08 µM | > 3.33 µM | 
